From publication PMC3086806, “Mining a Cathepsin Inhibitor Library for New Antiparasitic Drug Leads” (PLoS Neglected Tropical Diseases, 2011)
pIC50, pKi: −log10 of the molar value. Where two headings read alike, the source gives them in different places.

Experiments:
rhodesain = biological target: T1, rhodesain (Trypanosoma brucei rhodesiense, UniProt Q95PM0); assay: Rhodesain protease inhibition assay (Z-Phe-Arg-AMC); assay type: biochemical
T1 construct: made in house
Experimental: (§1) Recombinant cruzain, rhodesain, TbCatB, falcipain-2 and falcipain-3 were expressed as described previously, [39], [40], [41], [42]. Inhibitor stock solutions were prepared in DMSO and screened at 0.1 µM for cruzain and rhodesain, 1 µM for TbCatB and 50 nM for falcipain-3 (0.5% DMSO in assay). […] Protease inhibition assays for cruzain and rhodesain were carried out in 96 well plate format as described previously. Cruzain (4 nM), rhodesain (4 nM) or TbCatB (258 nM) was incubated with test compound in 100 mM sodium acetate, pH 5.5, containing 5 mM DTT and 0.01% Triton X-100 (buffer A), for 5 min at room temperature (the higher concentration of TbCatB was required due to its lower intrinsic activity against the fluorogenic substrate). Then buffer A containing Z-Phe-Arg-AMC (Bachem) was added to enzyme-compound mixture to give 10 µM substrate in a final assay volume of 200 µL. The rate of free AMC release was measured at excitation and emission wavelengths of 355 and 460 nm, respectively, with a microtiter plate spectrofluorimeter (SpectraMax M5, Molecular Devices) for 3 min. Percentage inhibition of test compound was calculated relative to the DMSO control (0% inhibition control). IC50 values were determined with Prism 4 software (GraphPad, San Diego, CA) using sigmoidal dose-response variable slope model.

TbCatB = biological target: T2, TbCatB (Trypanosoma brucei, UniProt Q6R7Z5); assay: TbCatB protease inhibition assay (Z-Phe-Arg-AMC); assay type: biochemical
T2 construct: made in house
T2 sequence (Q6R7Z5 23-340): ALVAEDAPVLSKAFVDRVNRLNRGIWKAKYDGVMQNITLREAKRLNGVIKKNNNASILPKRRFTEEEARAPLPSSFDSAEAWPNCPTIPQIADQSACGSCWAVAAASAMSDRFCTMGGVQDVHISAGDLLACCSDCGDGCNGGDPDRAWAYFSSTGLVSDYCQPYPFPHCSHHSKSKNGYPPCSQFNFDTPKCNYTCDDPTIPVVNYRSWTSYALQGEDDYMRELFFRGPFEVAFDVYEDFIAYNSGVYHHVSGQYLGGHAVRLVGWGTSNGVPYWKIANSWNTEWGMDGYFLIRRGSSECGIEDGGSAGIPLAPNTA
Experimental: as §1

cruzain = biological target: T3, cruzain (Trypanosoma cruzi, UniProt P25779); assay: Cruzain protease inhibition assay (Z-Phe-Arg-AMC); assay type: biochemical
T3 construct: made in house
T3 sequence (P25779 123-467): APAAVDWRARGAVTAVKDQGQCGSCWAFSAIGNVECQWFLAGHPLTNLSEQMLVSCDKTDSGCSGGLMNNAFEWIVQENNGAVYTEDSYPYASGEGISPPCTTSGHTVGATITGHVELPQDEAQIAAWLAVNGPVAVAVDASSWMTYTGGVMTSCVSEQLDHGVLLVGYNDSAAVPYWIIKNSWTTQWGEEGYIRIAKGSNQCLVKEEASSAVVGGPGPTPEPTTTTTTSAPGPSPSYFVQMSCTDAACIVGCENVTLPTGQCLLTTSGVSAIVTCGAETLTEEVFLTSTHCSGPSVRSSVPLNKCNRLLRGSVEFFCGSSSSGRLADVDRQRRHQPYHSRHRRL
Experimental: as §1

[1] = system: T. brucei brucei clone 427-221a bloodstream forms; assay: T. brucei brucei growth inhibition assay; assay type: cell-based; conditions: Trypanosoma brucei; 40 hours
Experimental: The growth inhibition assay for T. brucei brucei was conducted as described previously. Bloodstream forms of the monomorphic T. brucei brucei clone 427-221a were grown in complete HMI-9 medium containing 10% FBS, 10% Serum Plus medium (Sigma Inc. St. Louis Mo. USA), 50 U/mL penicillin and 50 µg/mL streptomycin (Invitrogen) at 37°C under a humidified atmosphere and 5% CO2. […] 5 µL of each dilution was added to 95 µL of diluted parasites (1×10^4 cells per well) in sterile Greiner 96-well flat white opaque culture plates such that the final DMSO concentration was 0.5%. The 0% inhibition control wells contained 0.5% DMSO while 100% inhibition control wells contained 50 µM thimerosal (Sigma). After compound addition, plates were incubated for 40 hours at 37°C. At the end of the incubation period, 50 µL of CellTiter-Glo™ reagent (Promega Inc., Madison, WI, USA) was added to each well and plates were placed on an orbital shaker at room temperature for 2 min to induce lysis. After an additional 10 min incubation without shaking to stabilize the signal, the ATP-bioluminescence of each well was determined using an Analyst HT plate reader (Molecular Devices, Sunnyvale, CA, USA). Raw values were converted to log10 and percentage inhibition calculated relative to the controls. IC50 curve fittings were performed with Prism 4 software as above.

[2] = system: intracellular T. cruzi (CA-I/72) in BESM cells; assay: T. cruzi amastigote growth inhibition assay; assay type: cell-based; conditions: Trypanosoma cruzi; infected BESM cells, 72 hours
Experimental: (§2) The growth inhibition assay for the intracellular T. cruzi was conducted in 96-well plate format as described previously. Briefly, bovine embryo skeletal muscle (BESM) cells (2×10^3/well), seeded overnight, were infected with CA-I/72 T. cruzi trypomastigotes (2×10^3/well). Sixteen hours post-infection, test compounds (serial dilution concentrations starting from 20 µM) were added and assay plates were incubated for an additional 72 hours at 37°C with 5% CO2. Cells were then washed once in PBS, fixed with 4% paraformaldehyde and stained with DNA fluorescent dye DAPI (4′ 6-diamidino-2-phenylindole). The assay plates were then imaged in the IN Cell Analyzer 2000 (GE Healthcare) with the excitation and emission filters set of 350 nm and 460 nm, respectively, to detect DAPI signals. The feature extraction module in IN Cell Developer Toolbox 1.7 software was used to count host nuclei and parasite kinetoplasts by size difference.

[3] = Jurkat cell cytotoxicity assay; assay type: cell-based; conditions: human, Jurkat cells (clone E6-1), read-out: Cytotoxicity (% inhibition at 10 µM) Jurkat cells
Experimental: (§3) Jurkat cells (clone E6-1) were grown in complete RPMI-1640 medium containing 10% FBS, 50 U/mL penicillin and 50 µg/mL streptomycin (Invitrogen) at 37°C under a humidified atmosphere and 5% CO2. For cytotoxicity testing, cells were diluted to 1×10^5 per ml in complete RPMI-1640 medium. Test compound stocks were prepared in 100% DMSO and screened at 10 µM against cells (1×10^4 cells per well) in sterile Greiner 96-well flat white opaque culture plates (0.5% final DMSO concentration). The 0% inhibition control wells contained 0.5% DMSO while 100% inhibition control wells contained 40 µM staurosporine. After compound addition, plates were incubated for 40 hr at 37°C. At the end of the incubation period, 50 µL of CellTiter-Glo™ reagent (Promega Inc., Madison, WI, USA) was added to each well and plates were placed on an orbital shaker at room temperature for 2 min to induce lysis. After a further 10 min incubation without shaking to stabilize the signal, the ATP-bioluminescence of each well was determined using an Analyst HT plate reader (Molecular Devices, Sunnyvale, CA, USA). Calculations of percentage inhibition and IC50 were performed similar to those in the T. brucei brucei assay.

human cathepsin L = biological target: human cathepsin L; design: method as in data provided by Celera Genomics; conditions: historical data; ref data provided by Celera Genomics; read-out: Ki catL; cited from earlier work
human cathepsin B = biological target: human cathepsin B; design: method as in data provided by Celera Genomics; conditions: historical data; ref data provided by Celera Genomics; read-out: Ki catB; cited from earlier work
falcipain-3 = biological target: T4, falcipain-3 (Plasmodium falciparum, UniProt Q8IIL0); assay: Falcipain-3 protease inhibition assay (Z-Leu-Arg-AMC); assay type: biochemical
T4 construct: made in house
T4 sequence (Q8IIL0 243-492): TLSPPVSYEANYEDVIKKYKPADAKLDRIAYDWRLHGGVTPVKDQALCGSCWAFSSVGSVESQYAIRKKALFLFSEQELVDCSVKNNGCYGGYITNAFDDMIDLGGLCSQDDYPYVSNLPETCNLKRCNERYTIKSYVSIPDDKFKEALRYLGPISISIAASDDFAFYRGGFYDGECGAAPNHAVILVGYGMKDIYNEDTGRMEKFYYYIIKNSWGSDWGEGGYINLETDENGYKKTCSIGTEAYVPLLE
Experimental: as §1
(§4) Protease inhibition assays for falcipain-2 and falcipain-3 were carried out in 96 well plate format as described previously, [43] with modification for end-point readout. Falcipain-2 (21 nM) or falcipain-3 (78 nM) was incubated with test compound for 10 min at room temperature in 200 mM sodium acetate, pH 6, 10 mM DTT and 3.6% glycerol and 0.01% Triton X-100 (buffer B). Then buffer B containing Z-Leu-Arg-AMC (Bachem) was added to the enzyme-compound mixture to give 25 µM substrate in a final assay volume of 200 µL. After 15 min, 50 µL of 5 M acetic acid was added to each well to stop the reaction. End-point fluorescence was read in a spectrofluorimeter as above. The 0% inhibition control wells contained DMSO while 100% inhibition control wells contained 50 µM E-64 (Sigma). Percentage inhibition of test compound was calculated relative to the controls and IC50 curve fitting was performed with Prism 4 software as above.

falcipain-2 = biological target: T5, falcipain-2 (Plasmodium falciparum, UniProt Q8I6U4); assay: Falcipain-2 protease inhibition assay (Z-Leu-Arg-AMC); assay type: biochemical
T5 construct: made in house
T5 sequence (Q8I6U4 244-484): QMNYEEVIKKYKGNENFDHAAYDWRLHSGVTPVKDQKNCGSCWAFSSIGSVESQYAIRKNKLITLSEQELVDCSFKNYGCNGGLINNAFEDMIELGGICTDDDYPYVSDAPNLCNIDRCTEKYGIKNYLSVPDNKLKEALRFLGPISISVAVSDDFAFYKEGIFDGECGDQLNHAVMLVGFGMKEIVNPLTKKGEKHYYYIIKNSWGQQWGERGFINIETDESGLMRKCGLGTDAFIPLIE
Experimental: as §1, §4

[4] = system: W2-strain P. falciparum parasites; assay: P. falciparum growth inhibition assay; assay type: cell-based, Plasmodium falciparum; conditions: for GI50: Plasmodium falciparum, read-out: GI50 P. falc. W2
Experimental: The growth inhibition assay for P. falciparum was conducted as described previously. W2-strain P. falciparum parasites (1% parasitemia, 2% hematocrit) were cultured at 37°C in human red blood cells under the atmosphere of 3% O2, 5% CO2 balance N2 in 0.2 mL of per well in medium RPMI-1640 supplemented with 10% human serum in duplicate 96-well flat bottom culture plates in the presence of inhibitors. Tested compounds were serially diluted 1∶3 in the range 10,000 – 4.6 nM, with maximum DMSO concentration of 0.1%. Following 48 hours of incubation, the medium was removed and the cells were fixed in 2% formaldehyde in PBS. Parasite growth was evaluated by flow cytometry on a FACsort (Becton Dickinson) equipped with AMS-1 loader (Cytek Development) after staining with 1 nM DNA dye YOYO-1(Molecular Probes) in 100 mM NH4Cl, 0.8% NaCl. Parasitemias were determined from dot plots (forward scatter vs. fluorescence) using […] software (Becton Dickinson). IC50 values for growth inhibition were determined from plots of percentage control parasitemia over inhibitor concentration using GraphPad Prism software.

[5] = system: Jurkat cells (clone E6-1); assay: Jurkat cell cytotoxicity assay; assay type: cell-based; conditions: 40 hr
Experimental: as §3

[6] = system: bovine embryo skeletal muscle (BESM) cells; assay: Toxicity toward host BESM cells in the T. cruzi assay; assay type: cell-based; conditions: 20 µM
Experimental: as §2
All falcipain-3 inhibitors were also tested against falcipain-2. […] The entire library was examined for cytotoxicity to a mammalian cell line (Jurkat) at a concentration of 10 µM, and those compounds studied in the T. cruzi assay were also evaluated for toxicity (at 20 µM) toward the host BESM cells used in that assay. […]

T1 sequence (Q95PM0 entry or part of it): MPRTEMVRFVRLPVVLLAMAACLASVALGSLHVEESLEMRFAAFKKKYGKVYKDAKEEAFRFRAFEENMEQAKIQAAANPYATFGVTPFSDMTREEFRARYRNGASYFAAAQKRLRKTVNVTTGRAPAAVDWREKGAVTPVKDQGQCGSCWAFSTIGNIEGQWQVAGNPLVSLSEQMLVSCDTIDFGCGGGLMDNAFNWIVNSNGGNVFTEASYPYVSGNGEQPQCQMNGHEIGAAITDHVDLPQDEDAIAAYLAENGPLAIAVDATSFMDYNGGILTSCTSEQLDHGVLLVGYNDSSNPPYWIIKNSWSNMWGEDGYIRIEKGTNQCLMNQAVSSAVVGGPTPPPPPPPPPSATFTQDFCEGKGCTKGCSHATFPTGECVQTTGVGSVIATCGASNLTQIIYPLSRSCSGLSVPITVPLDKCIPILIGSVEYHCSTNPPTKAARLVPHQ

Row | SMILES | pIC50 (rhodesain) | pIC50 (TbCatB) | pIC50 (cruzain) | GI50 [1] | GI50 [2] | cytotoxicity at 40 h, 10 µM [3] | pKi (human cathepsin L) | pKi (human cathepsin B) | pIC50 (falcipain-3; read-out: IC50 falcipain-3) | pIC50 (falcipain-2) | GI50 ([4]; cultured W2 strain, 48 hours) | GI50 P. falc. W2 ([4]; cultured W2 strain, 48 hours) | Cytotoxicity (% inhibition at 10 µM) Jurkat cells [5] | Inhibition of growth of BESM cells [6] | pIC50 (falcipain-3) | GI50 ([4]; W2, 48 h)
1 | CCCC[C@H](NC(=O)C1(NC(=O)c2ccc(-c3csc(N4CCN(C)CC4)n3)cc2)CCCCC1)C(=O)c1nc2ccccc2o1 [Compound 23b] | 5.30 | 9.00 | 6.42 | 10500 nM | 7700 nM | < 5% | 6.55 | 6.21 |  |  |  |  |  |  |  | 
2 | CC(C)CC(NC(=O)N1CCOCC1)C(=O)NC(C=CS(=O)(=O)c1ccccc1)CCc1ccc(O)cc1 (stereo not drawn) [Compound 18a] |  |  |  |  |  | < 5% | 8.52 | 6.36 | 7.40 | 8.12 | 20 nM |  |  |  |  | 
3 | CC(C)CC(NC(c1ccc(-c2ccc(S(C)(=O)=O)cc2)cc1)c1nccs1)C(=O)NC1(C#N)CC1 (stereo not drawn) [Compound 21] |  |  |  |  |  | < 5% | 7.49 | 5.17 | 8.62 | 8.70 | 870 nM | sub-micromolar |  |  |  | 
4 | CCC[C@H](NC(=O)C1(NC(=O)c2ccc(-c3csc(N4CCN(C)CC4)n3)cc2)CCCCC1)C(=O)c1nc2ccccc2o1 [Compound 23a] | 5.41 | 7.15 | 7.52 | 4200 nM | 19000 nM | < 5% | 5.96 | 6.49 |  |  |  |  |  |  |  | 
5 | CC(C)CC(NC(=O)c1ccc(-c2csc(Nc3ccncc3)n2)cc1)C(=O)NCCN(CC(C)C)CC(C)C (stereo not drawn) [Compound 22] | 6.19 |  | 5.80 | 200 nM | 800 nM | < 5% | 7.15 | 5.35 |  |  |  |  | did not inhibit the growth | ~90% |  | 
6 | N#CC1(NC(=O)C(CC2CCCCC2)NC(=O)c2cccc(-c3cccc(S(N)(=O)=O)c3)c2)CCS(=O)(=O)CC1 (stereo not drawn) [Compound 20] |  |  |  |  |  | < 5% |  |  | 7.96 | 8.12 | 170 nM | sub-micromolar |  |  |  | 
7 | CCCCC(NC(=O)C(CC(C)C)NC(C)=O)C(=O)c1nc2ccccc2o1 (stereo not drawn) [Compound 19c] |  |  |  |  |  | < 5% | 6.21 | 6.04 | 7.77 | 7.18 | 4800 nM |  |  |  |  | 
8 | CC(C)CC(NC(=O)N1CCOCC1)C(=O)NC(C=CS(=O)(=O)c1ccccc1)CCc1ccccc1 (stereo not drawn) [Compound 18b] |  |  |  |  |  | < 5% |  | 6.68 |  | 8.44 |  |  |  |  | 7.54 | 40 nM
